According to patent EP0081122B1, “Carrier tripeptides with antifungal activity” (Helopharm W. Petrik GmbH & Co.KG., priority 1982, dated 1985):

Tests used:
einigen Bakterien = experiment: Antibacterial activity of free amino acid antagonists; assay type: cell-based; conditions: lost when built into the tripeptides
Candida albicans = experiment: Growth inhibition / minimal inhibitory concentration in yeast nitrogen base medium; assay type: cell-based
Procedure: Die weiteren Untersuchungen dieser fünf Tripeptide gegenüber Cadida albicans und Candida pseudotropicalis in »yeast nitrogen base« Medium mit einer Zellzahl von 10^4/ml zu Testbeginn führten zu dem Ergebnis, daß diese Tripeptide keinerlei Wachstumshemmung zeigen. Die Tripeptide werden dabei bis zu einer Konzentration von 10 mg/ml Testmedium beurteilt. Bei den Tripeptiden L-Arg-D-Val-L-Phe und L-Arg-D-Ala-L-Phe werden im Gegenteil sogar Wachstumsförderung von Candida albicans festgestellt.
In der beigefügten Tabelle I sind die kleinsten inhibierenden Konzentrationen der beiden beispielsweisen erfindungsgemäßen Tripeptide 1 und 2 denjenigen der freien Antimetaboliten gegenübergestellt anhand des Beispiels candida albicans. Die Untersuchungen wurden in einem yeast nitrogen base Medium mit einem Glukosegehalt von 2% und einem pH-Wert von 7,2 durchgeführt. Die Zellzahl zu Versuchsbeginn beläuft sich auf 10^4/ml. Die Tests werden in Mikrotiterschalen durchgeführt und es wird 24 Stunden bei 30° C inkubiert.

[1] = dissertation Universität Tübingen 1975; cited from earlier work

CC(=O)N[C@@H](CCCNC(=N)N)C(=O)NC(Cc1ccc(F)cc1)C(=O)N[C@@H](Cc1ccccc1)C(=O)O (mixture of isomers) [Verbindung 3, N 1-Acetyl-L-arginyl-DL-(p-fluorphenylalanyl)-L-phenyialanin]
durch Carboxypeptidasen spaltbar (Carboxypeptidasen): schwerer spaltbar

N=C(N)NCCC[C@H](N)C(=O)NC(Cc1ccc(F)cc1)C(=O)N[C@@H](Cc1ccccc1)C(N)=O (mixture of isomers) [Verbindung 4, L-Arginyl-DL-(p-fluorphenylalanyl)-L-phenylalaninamid]
durch Carboxypeptidasen spaltbar (Carboxypeptidasen): schwerer spaltbar

NC(Cc1ccc(F)cc1)C(=O)O (racemic) [p-F-DL-Phenylalanin]
Wirksamkeit gegenüber einigen Bakterien (einigen Bakterien): Wirksamkeit zeigen | Wirksamkeit gegen candida albicans (Candida albicans): nicht wirksam | MIC (Candida albicans; 24 h, all tested Candida albicans isolates, read-out: inhibierende Konzentration): > 256 µg/mL

NC(Cc1cccs1)C(=O)O (racemic) [β-2-DL-Thienylalanin]
Wirksamkeit gegenüber einigen Bakterien (einigen Bakterien): Wirksamkeit zeigen

L-Arginyl-D-allothreonyl-L-phenylalanin
antifungische Wirksamkeit [1]: antifungische Wirksamkeit
